According to US5420145A, “Carboxylic acid derivative” (Shudo; Koichi, priority 1993, dated 1995):
Where two headings read alike, the source gives them in different places.

Tested on: promyelocytic leukemia cell-line HL-60
Assay: Differentiation Inducing Activity on HL-60 (differentiation to granulocyte; morphological observation of nucleus and NBT reduction)
Format: cell-based
Conditions: Homo sapiens
Description: The activities of the compounds of the above-described examples on differentiation were evaluated using promyelocytic leukemia cell-line HL-60 according to the method described in Japanese Patent Unexamined Publication No. 61-76440. The differentiation to granulocyte was evaluated by morphological observation of nucleus and measurement of ability to reduce nitroblue-tetrazolium (NBT). These are well known procedures providing adequate results in the evaluation of the cell differentiation-inducing activity of retinoids. Retinoic acid was used as the reference compound, and the concentrations which induced differentiation in the half of the cells were calculated.

[1] = HL-60 cells, differentiation to granulocyte, nucleus morphology and nitroblue-tetrazolium (NBT) reduction, read-out: ED50 (concentration which induced differentiation in the half of the cells)

SMILES	EC50 [1] [nM]	EC50 (HL-60, read-out: ED50 (concentration which induced differentiation in the half of the cells)) [nM]
CC(C)c1ccc(NC(=O)c2ccc(C(=O)O)cn2)cc1C(C)C [Example 5, 6-(3,4-Di-isopropylphenylcarbamoyl)pyridine-3-carboxylic acid]	25	–
CC1(C)CCC(C)(C)c2cc(NC(=O)c3ccc(C(=O)O)cn3)ccc21 [Example 2, 6-(5,6,7,8-Tetrahydro-5,5,8,8-tetramethyl-2naphthalenylcarbamoyl) pyridine-3-carboxylic acid]	0.22	–
CC1(C)CCC(C)(C)c2cc(NC(=O)c3ccc(C(=O)O)cc3O)ccc21 [Example 3, 3-Hydroxy-4-(5,6,7,8-tetrahydro-5,5,8,8-tetramethyl-2-naphthalenylcarbamoyl)benzoic acid]	0.41	–
CC1=C(/C=C/C(C)=C/C=C/C(C)=C/C(=O)O)C(C)(C)CCC1 [Retinoic Acid, Retinoic acid, reference compound]	–	2.4
CC1(C)CCC(C)(C)c2cc(NC(=O)c3ccc(C(=O)O)nc3)ccc21 [Example 1, 5-(5,6,7,8-Tetrahydro-5,5,8,8-tetramethyl-2-naphthalenyl-carbamoyl)pyridine-2-carboxylic acid]	40	–
CC1(C)CCC(C)(C)c2cc(C(=O)Nc3ccc(C(=O)O)cc3O)ccc21 [Example 4, 3-Hydroxy-4-(5,6,7,8-tetrahydro-5,5,8,8-tetramethyl-2-naphthalenylcarboxamide)benzoic acid]	6.5	–
